# Measurements published in ChEMBL document CHEMBL5584341, “Discovery of Potent, Specific, and Orally Available NLRP3 Inflammasome Inhibitors Based on Pyridazine Scaffolds for the Treatment of Septic Shock and Peritonitis” (J Med Chem, 2024).
# Calls of active or inactive are those of the source. The calls are words filed in the database; no cut-off is given here.
# How the values were obtained:
# [1] = Inhibition of IL-1beta release in PMA-differentiated/ LPS and nigericin stimulated human THP-1 cells pretreated with LPS for 3 hrs followed by incubation with compound for 40 mins and later stimulated with nigericin for 40 mins by ELISA; type: functional, cell-based
# hERG (KCNH2) = hERG (KCNH2) (Homo sapiens, UniProt Q12809); experiment: Inhibition of human ERG at 20 uM relative to control
# [2] = Tmax in BALB/c mouse at 5 mg/kg, iv measured upto 24 hrs by LC-MS/MS analysis; type: ADME, organism-based; conditions: in vivo
# [3] = AUC(0 to t) in BALB/c mouse at 5 mg/kg, iv measured upto 24 hrs by LC-MS/MS analysis; type: ADME, organism-based; conditions: in vivo
# [4] = Half-life in BALB/c mouse at 5 mg/kg, po measured upto 24 hrs by LC-MS/MS analysis; type: ADME, organism-based; conditions: in vivo
# [5] = Cmax in BALB/c mouse at 5 mg/kg, po measured upto 24 hrs by LC-MS/MS analysis; type: ADME, organism-based; conditions: in vivo
# [6] = MRT(0 to t) in BALB/c mouse at 5 mg/kg, po measured upto 24 hrs by LC-MS/MS analysis; type: ADME, organism-based; conditions: in vivo
# HepG2 = experiment: Cytotoxicity against human HepG2 cells at 5 to 20 uM incubated for 72 hrs by MTT assay; type: toxicity, cell-based; conditions: hepg2, 72 h, dose 5-20 µM
# NRK-49F = experiment: Cytotoxicity against rat NRK-49F cells at 5 to 20 uM incubated for 72 hrs by MTT assay; type: toxicity, cell-based; conditions: dose 5-20 µM
# Cytochrome P450 1A2 = target: T1, Cytochrome P450 1A2 (Homo sapiens, UniProt P05177); experiment: Inhibition of human CYP1A2 upto 10 uM relative to control; type: ADME
# T1 sequence (P05177 whole entry): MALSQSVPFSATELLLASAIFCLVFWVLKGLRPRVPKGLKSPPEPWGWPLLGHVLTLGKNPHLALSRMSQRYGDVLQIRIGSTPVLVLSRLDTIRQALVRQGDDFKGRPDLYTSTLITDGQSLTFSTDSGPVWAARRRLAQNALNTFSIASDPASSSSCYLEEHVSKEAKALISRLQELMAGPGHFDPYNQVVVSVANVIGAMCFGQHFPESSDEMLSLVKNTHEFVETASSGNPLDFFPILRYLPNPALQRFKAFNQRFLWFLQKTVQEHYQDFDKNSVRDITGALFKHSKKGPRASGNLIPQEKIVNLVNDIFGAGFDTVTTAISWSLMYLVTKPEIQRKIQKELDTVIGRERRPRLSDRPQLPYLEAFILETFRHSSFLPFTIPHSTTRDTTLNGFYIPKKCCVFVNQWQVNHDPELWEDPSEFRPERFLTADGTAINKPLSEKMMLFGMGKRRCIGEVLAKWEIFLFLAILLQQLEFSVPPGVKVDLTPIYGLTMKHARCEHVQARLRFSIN
# [7] = target: NACHT, LRR and PYD domains-containing protein 3 (Mus musculus) (UniProt Q8R4B8); experiment: Inhibition of NLRP3 inflammasome activation in LPS/nigericin stimulated mouse BMDMs assessed as effect on ASC expression pretreated with LPS for 3 hrs followed by compound addition for 40 mins prior to nigericin stimulation for 40 mins by Western blotting analysis; type: cell-based; conditions: BMDM, time 80.0 min
# [8] = target: NACHT, LRR and PYD domains-containing protein 3 (Mus musculus) (UniProt Q8R4B8); experiment: Inhibition of NLRP3 inflammasome activation in mouse BMDMs assessed as effect on pro-IL-1beta expression at 2 to 31.25 nM pretreated with compound for 40 mins followed by LPS/nigericin stimulation; type: cell-based; conditions: BMDM, dose 2-31.25 nM
# [9] = target: NACHT, LRR and PYD domains-containing protein 3 (Mus musculus) (UniProt Q8R4B8); experiment: Inhibition of NLRP3 inflammasome activation in mouse BMDMs assessed as effect on pro-IL-1beta expression at 2 to 31.25 nM pretreated with LPS for 3 hrs followed by compound addition for 40 mins; type: cell-based; conditions: BMDM, dose 2-31.25 nM
# [10] = target: NACHT, LRR and PYD domains-containing protein 3 (Mus musculus) (UniProt Q8R4B8); experiment: Inhibition of NLRP3 inflammasome activation in LPS stimulated mouse BMDMs assessed as reduction in IL-1beta release at 2 to 31.25 nM pretreated with LPS for 3 hrs followed by compound addition for 40 mins prior to ATP stimulation for 1 hr by ELISA; type: cell-based; conditions: BMDM, dose 2-31.25 nM, time 100.0 min
# [11] = target: NLR family CARD domain-containing protein 4 (Mus musculus) (UniProt Q3UP24); experiment: Inhibition of flagellin stimulated NLRC4 inflammasome activation in mouse BMDMs assessed as reduction in IL-1beta secretion at 0.1 to 10 uM pretreated with LPS for 3 hrs followed by compound addition for 40 mins prior to flagellin stimulation for 6 hrs by ELISA; type: cell-based; conditions: BMDM, dose 0.1-10 µM, time 400.0 min
# [12] = target: T2, Interferon-inducible protein AIM2 (Mus musculus) (UniProt Q91VJ1); experiment: Inhibition of poly dA:dT stimulated AIM2 inflammasome activation in mouse BMDMs assessed as reduction in IL-1beta secretion at 0.1 to 10 uM pretreated with LPS for 3 hrs followed by compound addition for 40 mins prior to poly dA:dT stimulation for 6 hrs by ELISA; type: cell-based; conditions: BMDM, dose 0.1-10 µM, time 400.0 min
# T2 sequence (whole entry): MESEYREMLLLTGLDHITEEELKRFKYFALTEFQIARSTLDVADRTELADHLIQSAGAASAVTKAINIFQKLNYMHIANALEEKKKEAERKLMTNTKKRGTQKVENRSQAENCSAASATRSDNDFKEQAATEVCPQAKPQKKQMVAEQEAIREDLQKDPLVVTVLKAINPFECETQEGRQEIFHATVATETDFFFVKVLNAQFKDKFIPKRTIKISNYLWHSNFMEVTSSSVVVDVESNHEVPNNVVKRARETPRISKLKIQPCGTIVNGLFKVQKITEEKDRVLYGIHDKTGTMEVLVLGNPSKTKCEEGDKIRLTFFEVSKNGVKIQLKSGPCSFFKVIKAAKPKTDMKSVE
# [13] = target: NLR family CARD domain-containing protein 4 (Mus musculus) (UniProt Q3UP24); experiment: Inhibition of flagellin stimulated NLRC4 inflammasome activation in mouse BMDMs assessed as reduction in IL-1beta secretion pretreated with LPS for 3 hrs followed by compound addition for 40 mins prior to flagellin stimulation for 6 hrs by Western blotting analysis; type: cell-based; conditions: BMDM, time 400.0 min
# [14] = target: T2, Interferon-inducible protein AIM2 (Mus musculus); experiment: Inhibition of poly dA:dT stimulated AIM2 inflammasome activation in mouse BMDMs assessed as reduction in IL-1beta secretion pretreated with LPS for 3 hrs followed by compound addition for 40 mins prior to poly dA:dT stimulation for 6 hrs by Western blotting analysis; type: cell-based; conditions: BMDM, time 400.0 min
# THP-1 = experiment: Inhibition of nigericin induced ASC oligomerization in PMA differentiated human THP-1 cells at 5 to 80 nM pretreated with LPS for 3 hrs followed by compound addition for 40 mins prior to nigericin stimulation for 40 mins by gel electrophoresis analysis; type: functional, cell-based; conditions: dose 5-80 nM, time 80.0 min
# Mus musculus [15] = experiment: Inhibition of MSU crystal induced peritonitis in BALB/c mouse assessed as reduction in IL-1beta level in peritoneal lavage fluids at 50 to 100 mg/kg, ip pretreated with LPS for 3 hrs followed by compound addition prior to MSU stimulation for 6 hrs by ELISA; type: functional, organism-based; conditions: dose 50-100 mg/kg
# Mus musculus [16] = experiment: Inhibition of MSU crystal induced peritonitis in BALB/c mouse assessed as reduction in serum IL-1beta level at 50 to 100 mg/kg, ip pretreated with LPS for 3 hrs followed by compound addition prior to MSU stimulation for 6 hrs by ELISA; type: functional, organism-based; conditions: dose 50-100 mg/kg
# NACHT, LRR and PYD domains-containing protein 3 (Mus musculus), sequence (Q8R4B8 whole entry, the tested form may be a part): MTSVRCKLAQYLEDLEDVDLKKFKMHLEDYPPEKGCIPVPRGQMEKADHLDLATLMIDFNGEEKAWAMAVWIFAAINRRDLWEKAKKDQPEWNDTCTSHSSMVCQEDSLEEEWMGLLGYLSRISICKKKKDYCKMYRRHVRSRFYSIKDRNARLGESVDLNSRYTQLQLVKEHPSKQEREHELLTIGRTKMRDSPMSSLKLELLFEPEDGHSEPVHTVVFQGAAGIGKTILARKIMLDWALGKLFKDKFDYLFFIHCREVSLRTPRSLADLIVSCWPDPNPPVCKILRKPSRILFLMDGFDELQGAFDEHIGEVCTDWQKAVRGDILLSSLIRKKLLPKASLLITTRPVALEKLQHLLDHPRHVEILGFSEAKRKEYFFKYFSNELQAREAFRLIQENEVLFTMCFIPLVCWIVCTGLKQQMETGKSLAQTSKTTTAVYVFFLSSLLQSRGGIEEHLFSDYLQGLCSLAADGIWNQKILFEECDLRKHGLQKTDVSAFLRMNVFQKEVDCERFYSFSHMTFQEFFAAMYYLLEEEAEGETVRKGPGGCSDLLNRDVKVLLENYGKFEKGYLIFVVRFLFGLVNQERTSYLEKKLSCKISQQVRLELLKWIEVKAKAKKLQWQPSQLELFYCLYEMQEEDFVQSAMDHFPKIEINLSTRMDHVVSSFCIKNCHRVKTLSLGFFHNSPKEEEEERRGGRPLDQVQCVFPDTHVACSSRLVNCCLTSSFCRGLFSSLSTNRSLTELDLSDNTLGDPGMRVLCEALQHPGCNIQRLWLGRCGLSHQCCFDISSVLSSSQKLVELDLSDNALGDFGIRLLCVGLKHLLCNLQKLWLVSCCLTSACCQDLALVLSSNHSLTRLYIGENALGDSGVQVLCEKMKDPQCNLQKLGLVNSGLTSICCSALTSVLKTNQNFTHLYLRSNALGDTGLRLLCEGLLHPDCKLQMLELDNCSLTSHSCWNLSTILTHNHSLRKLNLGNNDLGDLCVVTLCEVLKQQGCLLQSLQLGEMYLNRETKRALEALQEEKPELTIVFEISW
# NLR family CARD domain-containing protein 4 (Mus musculus), sequence (Q3UP24 whole entry, the tested form may be a part): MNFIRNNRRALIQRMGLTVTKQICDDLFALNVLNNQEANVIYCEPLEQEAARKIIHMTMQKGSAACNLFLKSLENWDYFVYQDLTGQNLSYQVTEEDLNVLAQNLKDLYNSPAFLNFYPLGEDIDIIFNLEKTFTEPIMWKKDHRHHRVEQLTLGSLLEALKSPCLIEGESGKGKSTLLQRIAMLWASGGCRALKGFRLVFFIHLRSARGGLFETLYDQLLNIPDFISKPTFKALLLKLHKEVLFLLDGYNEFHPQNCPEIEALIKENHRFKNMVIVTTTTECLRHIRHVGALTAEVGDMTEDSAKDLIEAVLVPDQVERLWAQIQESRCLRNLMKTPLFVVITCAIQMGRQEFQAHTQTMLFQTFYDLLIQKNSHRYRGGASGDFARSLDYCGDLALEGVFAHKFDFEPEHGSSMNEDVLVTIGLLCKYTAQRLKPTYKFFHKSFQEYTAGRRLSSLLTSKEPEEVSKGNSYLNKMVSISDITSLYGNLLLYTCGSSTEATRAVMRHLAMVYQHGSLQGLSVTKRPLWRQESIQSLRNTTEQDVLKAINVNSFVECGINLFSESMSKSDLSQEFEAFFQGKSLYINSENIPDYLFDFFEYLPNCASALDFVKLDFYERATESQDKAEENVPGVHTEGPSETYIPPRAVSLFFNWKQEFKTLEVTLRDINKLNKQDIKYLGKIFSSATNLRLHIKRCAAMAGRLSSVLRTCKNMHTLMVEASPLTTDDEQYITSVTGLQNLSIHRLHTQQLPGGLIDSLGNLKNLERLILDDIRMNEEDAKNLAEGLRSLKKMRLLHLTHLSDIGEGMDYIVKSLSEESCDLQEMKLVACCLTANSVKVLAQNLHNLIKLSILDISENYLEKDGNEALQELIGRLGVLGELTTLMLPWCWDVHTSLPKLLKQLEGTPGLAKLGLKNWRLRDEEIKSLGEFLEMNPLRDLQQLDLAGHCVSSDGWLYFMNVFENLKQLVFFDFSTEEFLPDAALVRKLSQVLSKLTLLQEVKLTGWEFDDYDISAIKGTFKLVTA
# hERG (KCNH2), sequence (Q12809 whole entry): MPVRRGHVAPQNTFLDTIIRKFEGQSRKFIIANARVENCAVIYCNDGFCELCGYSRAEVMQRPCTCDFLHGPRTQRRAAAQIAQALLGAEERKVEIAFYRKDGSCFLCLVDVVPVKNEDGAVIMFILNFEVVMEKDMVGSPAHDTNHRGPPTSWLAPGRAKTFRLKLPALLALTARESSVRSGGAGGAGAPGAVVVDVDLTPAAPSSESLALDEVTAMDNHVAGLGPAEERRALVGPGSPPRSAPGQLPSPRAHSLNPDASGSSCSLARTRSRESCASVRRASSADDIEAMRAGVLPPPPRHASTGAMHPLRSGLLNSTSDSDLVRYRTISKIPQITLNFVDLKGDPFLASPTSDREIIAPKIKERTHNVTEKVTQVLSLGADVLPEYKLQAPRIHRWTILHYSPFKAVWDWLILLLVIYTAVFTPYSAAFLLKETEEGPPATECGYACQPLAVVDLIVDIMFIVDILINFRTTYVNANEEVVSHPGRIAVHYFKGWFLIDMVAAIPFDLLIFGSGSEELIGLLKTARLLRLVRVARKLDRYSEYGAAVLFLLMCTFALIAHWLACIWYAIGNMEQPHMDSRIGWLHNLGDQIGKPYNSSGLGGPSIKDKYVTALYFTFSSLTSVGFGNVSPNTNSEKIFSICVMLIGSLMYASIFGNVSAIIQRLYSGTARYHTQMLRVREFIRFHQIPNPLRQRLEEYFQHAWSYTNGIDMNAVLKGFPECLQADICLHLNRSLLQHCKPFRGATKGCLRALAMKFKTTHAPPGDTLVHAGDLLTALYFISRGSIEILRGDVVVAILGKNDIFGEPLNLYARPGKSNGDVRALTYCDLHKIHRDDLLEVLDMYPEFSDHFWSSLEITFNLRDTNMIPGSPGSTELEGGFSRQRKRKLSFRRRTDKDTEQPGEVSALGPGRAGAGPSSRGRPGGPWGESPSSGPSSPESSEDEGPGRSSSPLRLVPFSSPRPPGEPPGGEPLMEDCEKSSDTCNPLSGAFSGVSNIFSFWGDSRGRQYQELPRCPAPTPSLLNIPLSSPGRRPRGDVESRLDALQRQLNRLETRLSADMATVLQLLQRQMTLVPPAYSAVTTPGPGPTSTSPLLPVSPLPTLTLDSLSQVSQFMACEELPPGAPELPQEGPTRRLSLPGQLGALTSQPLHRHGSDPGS
smiles,measurement,setting,value
OCCN1CCC[C@@H](Nc2nnc(-c3ccc4occc4c3O)c3c2C2CCC3CC2)C1,IC50,[1],3 nM
same,inhibition at 20 µM,hERG (KCNH2),49.1%
same,Tmax,[2],4.98 min
same,AUC(0-t) at 24 h,[3],9520 ng·h/mL
same,half-life,[4],4.74 h
same,Cmax,[5],746 ng/mL
same,MRT last at 24 h,[6],6.07 h
same,Activity,HepG2,Non-Toxic
same,Activity,NRK-49F,Non-Toxic
same,inhibition (INH),Cytochrome P450 1A2,Not Active
same,inhibition,[7],inactive
same,inhibition,[8],inactive
same,inhibition,[9],inactive
same,inhibition,[10],Active
same,inhibition,[11],inactive
same,inhibition,[12],inactive
same,inhibition,[13],inactive
same,inhibition,[14],inactive
same,inhibition,THP-1,Active
same,inhibition,Mus musculus [15],Active
same,inhibition,Mus musculus [16],Active
